From US8680339B2, “Herbicides” (Syngenta Limited, priority 2009, dated 2014)

Tests used:
Assay type in all cases: in vivo
[1] = system: Alopecurus myosuroides (ALOMY); assay: Pre-emergence herbicidal activity, glasshouse pot test; details: rate 250 g/ha, evaluated after 13 days, 100=total damage to plant, 0=no damage to plant; for pest or weed control at 250 g/ha: Alopecurus myosuroides, 312 h
Description: (§1) Seeds of a variety of test species were sown in standard soil in pots. After cultivation for one day (pre-emergence) or after 8 days cultivation (post-emergence) under controlled conditions in a glasshouse (at 24/16° C., day/night; 14 hours light; 65% humidity), the plants were sprayed with an aqueous spray solution derived from the formulation of the technical active ingredient in acetone/water (50:50) solution containing 0.5% Tween 20 (polyoxyethelyene sorbitan monolaurate, CAS RN 9005-64-5). The test plants were then grown in a glasshouse under controlled conditions in a glasshouse (at 24/16° C., day/night; 14 hours light; 65% humidity) and watered twice daily. After 13 days for pre and post-emergence, the test was evaluated (100=total damage to plant; 0=no damage to plant). Test Plants: Lolium perenne (LOLPE), Alopecurus myosuroides (ALOMY), Echinochloa crus-galli (ECHCG), and Avena fatua (AVEFA). Pre-Emergence Activity

[2] = system: Avena fatua (AVEFA); assay: as above; details: rate 250 g/ha, evaluated after 13 days, 100=total damage to plant, 0=no damage to plant; for pest or weed control at 250 g/ha: Avena fatua, 312 h
Description: as §1

[3] = system: Lolium perenne (LOLPE); assay: as above; details: rate 250 g/ha, evaluated after 13 days, 100=total damage to plant, 0=no damage to plant; for pest or weed control at 250 g/ha: Lolium perenne, 312 h
Description: as §1

[4] = system: Echinochloa crus-galli (ECHCG); assay: as above; details: rate 250 g/ha, evaluated after 13 days, 100=total damage to plant, 0=no damage to plant; for pest or weed control at 250 g/ha: Echinochloa crus-galli, 312 h
Description: as §1

[5] = system: Alopecurus myosuroides (ALOMY); assay: Post-emergence herbicidal activity, glasshouse pot test; details: rate 250 g/ha, evaluated after 13 days, 100=total damage to plant, 0=no damage to plant; for pest or weed control at 250 g/ha: Alopecurus myosuroides, 312 h
Description: as §1, with “Post-Emergence” for “Pre-Emergence”

[6] = system: Avena fatua (AVEFA); assay: as above; details: rate 250 g/ha, evaluated after 13 days, 100=total damage to plant, 0=no damage to plant; for pest or weed control at 250 g/ha: Avena fatua, 312 h
Description: as §1, with “Post-Emergence” for “Pre-Emergence”

[7] = system: Lolium perenne (LOLPE); assay: as above; details: rate 250 g/ha, evaluated after 13 days, 100=total damage to plant, 0=no damage to plant; for pest or weed control at 250 g/ha: Lolium perenne, 312 h
Description: as §1, with “Post-Emergence” for “Pre-Emergence”

[8] = system: Echinochloa crus-galli (ECHCG); assay: as above; details: rate 250 g/ha, evaluated after 13 days, 100=total damage to plant, 0=no damage to plant; for pest or weed control at 250 g/ha: Echinochloa crus-galli, 312 h
Description: as §1, with “Post-Emergence” for “Pre-Emergence”

SMILES | pest or weed control at 250 g/ha [1] | pest or weed control at 250 g/ha [2] | pest or weed control at 250 g/ha [3] | pest or weed control at 250 g/ha [4] | pest or weed control at 250 g/ha [5] | pest or weed control at 250 g/ha [6] | pest or weed control at 250 g/ha [7] | pest or weed control at 250 g/ha [8] | damage to plant ALOMY [1] | damage to plant AVEFA [2] | damage to plant LOLPE [3] | damage to plant ECHCG [4] | damage to plant ALOMY [5] | damage to plant AVEFA [6] | damage to plant LOLPE [7] | damage to plant ECHCG [8]
Cc1cc(Oc2ccc(F)cc2F)cc(C)c1C1=C(O)[C@H]2[C@@H](C1=O)[C@@H]1CC[C@H]2O1 [Compound A-6] | 70% | 30% | 80% | 70% | 90% | 70% | 70% | 90% | – | – | – | – | – | – | – | –
Cc1cc(Oc2cccc(Cl)c2)cc(C)c1C1=C(O)[C@H]2[C@@H](C1=O)[C@@H]1CC[C@H]2O1 [Compound A-14] | 40% | 0% | 70% | 80% | 70% | 30% | 70% | 80% | – | – | – | – | – | – | – | –
CCc1cc(Oc2ccc3cc(Cl)ccc3n2)ccc1C1=C(O)CCC1=O [Compound A-35] | 0% | 0% | 0% | 70% | 0% | 0% | 20% | 80% | – | – | – | – | – | – | – | –
Cc1cc(Oc2cnc3cc(Cl)ccc3n2)cc(C)c1C1=C(O)C2C(C1=O)[C@H]1CC[C@@H]2CC1 (stereo partly drawn) [Compound A-21] | 10% | 0% | 30% | 50% | 10% | 0% | 0% | 70% | – | – | – | – | – | – | – | –
Cc1cc(Oc2ncc(Cl)cc2F)cc(C)c1C1=C(O)C2C(C1=O)[C@H]1CC[C@@H]2CC1 (stereo partly drawn) [Compound A-20, 2-[4-(5-chloro-3-fluoropyridin-2-yloxy)-2,6-dimethylphenyl]hexahydro-4,7-ethanoindene-1,3-dione] | 40% | 0% | 20% | 60% | 50% | 20% | 30% | 70% | – | – | – | – | – | – | – | –
Cc1cc(Oc2ccc(Br)cc2F)cc(C)c1C1=C(O)[C@H]2[C@@H](C1=O)[C@@H]1CC[C@H]2O1 [Compound A-3, meso-(1R,2S,6R,7S)-4-(4-[4-bromo-2-fluorophenoxy]-2,6-dimethylphenyl)-10-oxatricyclo[5.2.1.0^2,6]decane-3,5-dione] | 80% | 30% | 80% | 90% | 100% | 90% | 90% | 100% | – | – | – | – | – | – | – | –
CCc1cc(Oc2ccc(Cl)cc2)ccc1C1=C(O)CCC1=O [Compound A-32, 2-[4-(4-chlorophenoxy)-2-ethylphenyl]cyclopentane-1,3-dione] | 0% | 0% | 10% | 50% | 0% | 0% | 0% | 0% | – | – | – | – | – | – | – | –
Cc1cc(Oc2ccccc2F)cc(C)c1C1=C(O)[C@H]2[C@@H](C1=O)[C@@H]1CC[C@H]2O1 [Compound A-5] | 40% | 30% | 50% | 60% | 60% | 50% | 70% | 90% | – | – | – | – | – | – | – | –
Cc1cc(Oc2ccc(Br)cc2)cc(C)c1C1=C(O)[C@H]2[C@@H](C1=O)[C@@H]1CC[C@H]2O1 [Compound A-11] | 90% | 90% | 100% | 70% | 90% | 90% | 90% | 100% | – | – | – | – | – | – | – | –
Cc1cc(Oc2ccc(Cl)cc2F)cc(C)c1C1=C(O)[C@H]2[C@@H](C1=O)[C@@H]1CC[C@H]2O1 [Compound A-7] | 70% | 90% | 90% | 100% | 100% | 90% | 100% | 100% | – | – | – | – | – | – | – | –
Cc1cc(Oc2ccc(F)cc2)cc(C)c1C1=C(O)[C@H]2[C@@H](C1=O)[C@@H]1CC[C@H]2O1 [Compound A-15] | 60% | 70% | 90% | 70% | 90% | 90% | 90% | 100% | – | – | – | – | – | – | – | –
Cc1cc(Oc2cnc3cc(Cl)ccc3n2)cc(C)c1C1=C(O)[C@H]2[C@H]3CC[C@H](C3)[C@H]2C1=O [Compound A-16] | 0% | 0% | 0% | 10% | 30% | 0% | 0% | 60% | – | – | – | – | – | – | – | –
Cc1cc(Oc2ncc(Cl)cc2F)cc(C)c1C1=C(O)[C@H]2[C@H]3CC[C@H](C3)[C@H]2C1=O [Compound A-18] | 10% | 0% | 0% | 40% | 30% | 30% | 10% | 70% | – | – | – | – | – | – | – | –
Cc1cc(Oc2ccc(Cl)cc2)cc(C)c1C1=C(O)[C@H]2[C@@H](C1=O)[C@@H]1CC[C@H]2O1 [Compound A-4] | 100% | 70% | 80% | 90% | 100% | 90% | 100% | 100% | – | – | – | – | – | – | – | –
Cc1cc(Br)ccc1Oc1cc(C)c(C2=C(O)[C@H]3[C@@H](C2=O)[C@@H]2CC[C@H]3O2)c(C)c1 [Compound A-13] | 60% | 0% | 60% | 70% | 80% | 30% | 60% | 50% | – | – | – | – | – | – | – | –
Cc1cc(Oc2ncc(Cl)cc2F)cc(C)c1C1=C(O)[C@H]2[C@@H](C1=O)[C@@H]1CC[C@H]2O1 [Compound A-25] | – | – | – | – | – | – | – | – | 40 | 30 | 80 | 70 | 90 | 70 | 80 | 70
Cc1cc(Oc2ccc(Cl)cc2)cc(C)c1C1=C(O)CC(CC2CCOCC2)C1=O (stereo not drawn) [Compound A-34] | 80% | 30% | 70% | 70% | 80% | 60% | 70% | 80% | – | – | – | – | – | – | – | –
CCc1cc(Oc2ccc(Cl)cc2)ccc1C1=C(O)[C@H]2[C@@H](C1=O)[C@@H]1CC[C@H]2O1 [Compound A-2] | 30% | 0% | 60% | 30% | 90% | 90% | 80% | 100% | – | – | – | – | – | – | – | –
